The values below come from US20210379077A1, “TOPOISOMERASE II CATALYTIC INHIBITOR COMPOUND THERAPEUTICS FOR CANCER TREATMENT, METHODS AND USES” (The University of British Columbia, priority 2018, published 2021).

One data set addresses T1, Topoisomerase II (Homo sapiens, UniProt P11388).
T1 construct: purchased TopoGENE (TopoGEN) TG2000H / kit TG1001
Kind of data set: Topoisomerase II inhibition screening (supercoiled plasmid relaxation, then kDNA decatenation). It counts as biochemical. Further details: key to TOP2 Inhib.: Y is an indication that activity was found. As for the experimental part:
In vitro Topo II activity assays—K-DNA decatenation assays were performed using the human Topo II assay kit (TG1001, TopoGENE™) with Etoposide and ICRF193 as poison and catalytic inhibitors respectively. DNA relaxation assays were performed by incubating the supercoiled pHOT™ plasmid with human Topo IIα (TG2000H™, TopoGENE™) at 37 degrees for one hour. Reactions were stopped by adding 10% SDS, EDTA and proteinase K. Plasmid DNAs were separated on DNA agarose gel and stained with ethidium bromide for visualization.
Medium Throughput Screening Assays A supercoiled plasmid relaxation assay was used as a first, course filter to determine candidate small molecules. Small molecule candidates that were sufficiently active in the first round screening were then subject to the kDNA decatenation assay.
Second Round Screening With the discovered active compounds 19 and 23, a new screen was initiated to look for similar molecules. For this, the shape similarity screening program ROCS™^10 was used The compounds chosen for the ROCS™ search was based on the docking conformation of Compound 23. The ZINC-15 library filtered down to 6 million molecules described previously was used for this screening. The top 62 molecules were hand-picked based on their ROCS™ similarity as well as their docking scores. These molecules were ordered and tested with the same medium throughput assays previously described. A large enrichment in the proportion of active molecules was observed, of close to 10-fold relative to the first round, validating the virtual screening pipeline.

A further data set relates to K562 cells. In words: γH2AX Western blot (DNA damage in cells). Format: cell-based. The settings on record: 10-20 μM, 4 hours, listed as Top60. On the procedure:
Cytotoxicity was evaluated by measuring LDH levels from cell culture media; (b) K562 cells were treated with either vehicle or 10-20 μM of Top60, Etoposide and ICRF187 for 4 hours. Whole cell lyses were collected to measure γH2AX levels with vinculin as the loading control; (c) K562 cells were treated with 0, 1, 5, 10, 15 and 20 μM of Top60, 20 μM Etoposide or 20 uM ICRF187 for 48 hours. Cell proliferation rates were determined by MTS assays; and (d) K562 cells were treated with 20 μM of Top60, Etoposide or ICRF187 for 0, 24, 48 and 72 hours. Cell proliferation rates were measured by MTS assays. All results were collected from three independent experiments.
Top60 is a catalytic inhibitor of Topo II To verify that our lead Compound 60(Top60), the formation of ds DNA breaks was assayed both in and outside of cells. To assess whether Top60 causes double stranded DNA breaks outside cells, supercoiled plasmid was incubated with and without Top60 in the presence of Topo II (FIG. 1d). […] Furthermore, H2AXγ protein expression was assessed by Western blot to determine if the lead compound could cause DNA damage in cells, and compared to Etoposide as a control (FIG. 3b). […] To determine if Top60 was capable of intercalating DNA, it was incubated with relaxed plasmid at increasing concentrations and compared with m-AMSA, a known intercalator. […]
(In general: A western blot detects proteins with antibodies after separation by electrophoresis.)

In data set [1] the test system is Hela cells. In words: BrdU incorporation assay. It counts as cell-based. The settings on record: 20 μM, 48 hours, listed as Top60. As for the experimental part:
(§1) BrdU incorporation rates were determined by Millipore™ BrdU incorporation kit (CAT #2750). (b-c) Hela cells were treated with vehicle or 20 μM of Top60 for 48 hours. Cells were then stained with APC-BrdU and 7-AAD for 4 hours, and subjected to FACS assays to determine cell populations at Sub G0/G1, G0/G1, S, and G2/M phases. Results were collected from three independent experiments, (d-e) Hela cells were treated with either vehicle or 20 μM T60 for 48 hours. Cells were fixed and co-stained with DAPI and phalloidin, and examined by confocal microscopy. Fifty cells were chosen from five high power fields to analyze nuclei sizes by the Image J software. Representative bright field microscopic images were also shown. Scale bar=50 μm.
BrDU incorporation and cell proliferation assays—Cell proliferation rates were measured by using the CellTitre™ 96 AqueousOne™ kit (Promega™) and bromodeoxyuridine (BrdU) assay kit (Millipore™) according to the manufacturer's protocol, with minor modifications as we have previously described by Li H. et al.^19
For orientation: Incorporation of labelled thymidine or its analogues reports DNA synthesis.

Data set [2] concerns Hela cells. In words: FACS cell cycle assay. It counts as cell-based. The settings on record: 20 μM, 48 hours. As for the experimental part: as §1
FACS assays—Cell cycling was assessed by using BrdU incorporation into S-phase DNA through using the APC BrdU flow kit (BD Pharmingen™; Franklin Lakes, N.J., USA) according to manufacturer's protocol. Briefly, 1 mM of BrdU was added to cells and incubated for 6 hours. Cells were incubated with anti-BrdU antibody and stained with 7-AAD before processing the cells for flow cytometry.

A further data set deals with Topo IIα (Homo sapiens, UniProt P11388). In words: DNA cleavage assay (linear DNA formation). It counts as biochemical. Further details: purchased TopoGENE (TopoGEN) TG2000H. The following applies: supercoiled plasmid with Topo II, 50 μM. On the procedure: DNA samples were separated by electrophoresis on 0.8% agarose gels and visualized by ethium bromide staining. The positions of K-DNA and decatenated (D) DNA products are marked by arrows. Experiments were repeated five times and the densitometry of the D bands were used to establish an inhibition curve to calculate IC50. (b) Supercoiled pHOT™ plasmid was incubated with human TOP2a in the presence of 50 μM Etopside, 50 uM ICRF193 or 0-50 μM of compound #60 (Top60) compound at 37° C. for 1 hour. DNA products were separated by electrophoresis on 1% agarose gels and visualized by ethium bromide staining. The positions of supercoiled (SC), nicked (N), and relaxed (R) DNA bands are marked by arrows. Experiments were repeated five times and the densitometiy of the SC bands were used to establish an inhibition curve to calculate IC50. (c) Supercoiled pHOT™ plasmid was incubated with Topoisomerase I prior to addition of either mAMSA or compound #60 (Top60) at concentrations of 0, 5, 10, 25 and 50 μM at 37° C. for 30 minutes. […]
Chain of Topo IIα (P11388 whole entry): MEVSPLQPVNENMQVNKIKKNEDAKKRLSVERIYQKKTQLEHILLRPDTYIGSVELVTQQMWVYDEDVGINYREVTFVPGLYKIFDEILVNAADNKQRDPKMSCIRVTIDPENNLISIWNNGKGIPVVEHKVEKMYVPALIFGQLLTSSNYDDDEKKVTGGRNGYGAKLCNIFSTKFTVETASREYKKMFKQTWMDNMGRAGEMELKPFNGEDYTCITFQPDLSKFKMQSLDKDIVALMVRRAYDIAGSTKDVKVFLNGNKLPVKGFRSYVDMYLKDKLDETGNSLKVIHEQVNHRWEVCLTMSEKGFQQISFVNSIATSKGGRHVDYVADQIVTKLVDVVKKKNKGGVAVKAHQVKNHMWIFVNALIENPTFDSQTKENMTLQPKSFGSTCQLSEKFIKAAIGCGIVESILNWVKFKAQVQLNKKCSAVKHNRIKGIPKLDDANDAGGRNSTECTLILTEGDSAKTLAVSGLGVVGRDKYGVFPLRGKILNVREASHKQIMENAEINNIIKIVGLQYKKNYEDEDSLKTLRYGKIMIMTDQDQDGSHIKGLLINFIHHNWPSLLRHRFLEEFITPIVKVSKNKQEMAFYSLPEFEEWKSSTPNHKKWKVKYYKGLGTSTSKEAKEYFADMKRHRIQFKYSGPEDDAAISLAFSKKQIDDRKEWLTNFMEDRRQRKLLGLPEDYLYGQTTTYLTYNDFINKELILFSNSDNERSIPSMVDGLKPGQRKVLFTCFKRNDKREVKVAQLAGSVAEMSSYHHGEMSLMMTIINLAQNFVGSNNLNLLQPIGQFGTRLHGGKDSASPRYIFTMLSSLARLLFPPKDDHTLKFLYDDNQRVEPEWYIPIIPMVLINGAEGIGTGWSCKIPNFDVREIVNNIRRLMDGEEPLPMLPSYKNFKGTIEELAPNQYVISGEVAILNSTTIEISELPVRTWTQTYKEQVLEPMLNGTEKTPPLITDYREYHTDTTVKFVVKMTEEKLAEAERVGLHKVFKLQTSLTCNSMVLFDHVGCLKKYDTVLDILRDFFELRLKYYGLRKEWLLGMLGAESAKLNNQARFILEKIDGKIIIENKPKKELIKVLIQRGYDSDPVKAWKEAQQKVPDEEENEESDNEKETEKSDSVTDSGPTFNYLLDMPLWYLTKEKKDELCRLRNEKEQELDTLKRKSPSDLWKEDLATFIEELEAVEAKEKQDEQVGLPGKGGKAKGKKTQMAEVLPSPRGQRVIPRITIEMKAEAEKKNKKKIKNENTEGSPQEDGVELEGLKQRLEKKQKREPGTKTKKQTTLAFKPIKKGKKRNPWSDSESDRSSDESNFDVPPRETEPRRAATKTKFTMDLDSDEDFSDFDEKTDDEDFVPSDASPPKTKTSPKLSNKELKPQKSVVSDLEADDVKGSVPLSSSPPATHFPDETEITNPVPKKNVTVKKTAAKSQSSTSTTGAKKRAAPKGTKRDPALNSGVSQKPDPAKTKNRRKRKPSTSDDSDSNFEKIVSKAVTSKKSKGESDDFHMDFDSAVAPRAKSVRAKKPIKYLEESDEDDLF
Top60 is a catalytic inhibitor of Topo II To verify that our lead Compound 60(Top60), the formation of ds DNA breaks was assayed both in and outside of cells. […] Furthermore, H2AXγ protein expression was assessed by Western blot to determine if the lead compound could cause DNA damage in cells, and compared to Etoposide as a control (FIG. 3b). […]

“Also recorded” adds a separate entry of the source.

T1 sequence (P11388 whole entry): as above

`O=C(Nc1ccc(Nc2ccccc2)cc1)c1ccc[nH]c1=S` [Compound 60]: at Topoisomerase II, the “TOP2 Inhib.” value is reported as “Y” and the “inhibitory activity against Topo II compared with ICRF-193” value is reported as “more potent inhibitory activity against Topo II than ICRF-193”. In addition, the “IC50 of Topo II inhibition” value against Topoisomerase II (assay not specified) is on record as “nanomolar”. Besides, on Topoisomerase II (medium throughput relaxation and kDNA decatenation assays), the “relative activity among compounds tested in the screening round” value is “most active of the group”. Also, the “Topoisomerase II inhibitory activity” value at Topoisomerase II (result in words) was “inhibits TOP2 activity”. In the data set with K562 cells, the “DNA damage in cells by H2AXγ protein level” value is “do not cause DNA damage”. The “cellular replication (BrdU incorporation)” value in the data set on Hela cells [1] is given as “Decreased cellular replication; also recorded: inhibits DNA synthesis at S phase”. For the same compound, in the data set with Hela cells [2], the “cell population in G2/M” value is “increased cell population in G2/M” and the “cell population in S-phase” value was “large cell population delayed in S-phase”. At Topo IIα, the “formation of linear DNA (double stranded DNA breaks, poison activity)” value is “no linear DNA is formed”. Besides, on Topo IIα (listed as Top60), the “formation of linear DNA (double stranded DNA breaks, poison activity)” value is “almost no band corresponding to linear DNA is formed”.
